Reference: the supplement of paper PMC10307832

Assays:
Assay in all cases: relative viability (nuclei count vs DMSO), 5 days (fraction); higher = more cells survive
Doxorubicin + Navitoclax = compound: COc1cccc2c1C(=O)c1c(O)c3c(c(O)c1C2=O)C[C@@](O)(C(=O)CO)C[C@@H]3O[C@H]1C[C@H](N)[C@H](O)[C@H](C)O1 [Doxorubicin] + CC1(C)CCC(c2ccc(Cl)cc2)=C(CN2CCN(c3ccc(C(=O)NS(=O)(=O)c4ccc(N[C@H](CCN5CCOCC5)CSc5ccccc5)c(S(=O)(=O)C(F)(F)F)c4)cc3)CC2)C1 [Navitoclax] (partner 0.5 µM)
Outline: (§1)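 Relative viability is defined as nuclei in treated wells over nuclei in vehicle wells. Duplicate plates were run and medians reported. Lung cancer cell lines in 1536-well plates were dosed by pin tool one day after seeding, with one drug or with a fixed anchor-drug dose plus five library-drug doses (not always all listed) in √10 steps, and nuclei were counted after 5 days.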

Doxorubicin + Linsitinib = compound: COc1cccc2c1C(=O)c1c(O)c3c(c(O)c1C2=O)C[C@@](O)(C(=O)CO)C[C@@H]3O[C@H]1C[C@H](N)[C@H](O)[C@H](C)O1 [Doxorubicin] + C[C@]1(O)C[C@@H](c2nc(-c3ccc4ccc(-c5ccccc5)nc4c3)c3c(N)nccn32)C1 [Linsitinib] (partner 1 µM)
Outline: as §1

BAY61-3606 + Tozasertib = compound: COC1=C(C=C(C=C1)C2=CC3=NC=CN3C(=N2)NC4=C(C=CC=N4)C(=O)N)OC [BAY61-3606] + Cc1cc(Nc2cc(N3CCN(C)CC3)nc(Sc3ccc(NC(=O)C4CC4)cc3)n2)n[nH]1 [Tozasertib] (partner 0.1 µM)
Outline: as §1

[1] = compound: COc1cccc2c1C(=O)c1c(O)c3c(c(O)c1C2=O)C[C@@](O)(C(=O)CO)C[C@@H]3O[C@H]1C[C@H](N)[C@H](O)[C@H](C)O1 [Doxorubicin] + CC(=O)c1c(C)c2cnc(Nc3ccc(N4CCNCC4)cn3)nc2n(C2CCCC2)c1=O [Palbociclib] (partner 0.5 µM)
Outline: as §1

Cell Line | relative viability (Doxorubicin + Navitoclax; first compound 0.001 µM) | relative viability (Doxorubicin + Navitoclax; first compound 0.003162 µM) | relative viability (Doxorubicin + Navitoclax; first compound 0.01 µM) | relative viability (Doxorubicin + Navitoclax; first compound 0.03162 µM) | relative viability (Doxorubicin + Navitoclax; first compound 0.1 µM) | relative viability (Doxorubicin + Linsitinib; first compound 0.001 µM) | relative viability (Doxorubicin + Linsitinib; first compound 0.003162 µM) | relative viability (Doxorubicin + Linsitinib; first compound 0.01 µM) | relative viability (Doxorubicin + Linsitinib; first compound 0.03162 µM) | relative viability (Doxorubicin + Linsitinib; first compound 0.1 µM) | relative viability (BAY61-3606 + Tozasertib; first compound 0.02 µM) | relative viability (BAY61-3606 + Tozasertib; first compound 0.06325 µM) | relative viability (BAY61-3606 + Tozasertib; first compound 0.2 µM) | relative viability (BAY61-3606 + Tozasertib; first compound 0.6325 µM) | relative viability (BAY61-3606 + Tozasertib; first compound 2 µM) | relative viability ([1]; first compound 0.001 µM) | relative viability ([1]; first compound 0.003162 µM) | relative viability ([1]; first compound 0.01 µM) | relative viability ([1]; first compound 0.03162 µM) | relative viability ([1]; first compound 0.1 µM)
IA-LM | 0.616 | 0.821 | 0.6 | 0.278 | 0.0497 | 0.519 | 0.706 | 0.575 | 0.573 | 0.74 | – | – | – | – | – | – | – | – | – | –
HARA | 1.17 | 1.09 | 1.18 | 1.05 | 1.15 | 0.974 | 1.03 | 0.922 | 0.798 | 1.04 | 0.144 | 0.13 | 0.11 | 0.123 | 0.0865 | 0.234 | 0.256 | 0.259 | 0.236 | 0.263
SW 1573 | 0.849 | 1.09 | 1.04 | 0.526 | 0.196 | 0.669 | 0.831 | 0.858 | 0.586 | 0.529 | 0.168 | 0.174 | 0.154 | 0.197 | 0.146 | 0.365 | 0.316 | 0.162 | 0.0939 | 0.0476
NCI-H1792 | 0.634 | 0.556 | 0.62 | 0.582 | 0.597 | 0.563 | 0.612 | 0.543 | 0.455 | 0.474 | – | – | – | – | – | – | 0.668 | 0.651 | 0.542 | 0.558
HCC-827 | 1.03 | 1.03 | 1.06 | 1.1 | 1.03 | 0.922 | 0.965 | 0.969 | 0.921 | 0.921 | 0.412 | 0.415 | 0.373 | 0.387 | 0.38 | 0.465 | 0.458 | 0.484 | 0.465 | 0.593
LC-2-ad | 0.386 | 0.384 | 0.567 | 0.496 | 0.506 | 0.879 | 0.803 | 0.902 | 0.763 | 0.791 | 0.404 | 0.308 | 0.387 | 0.44 | 0.345 | 0.475 | 0.476 | 0.496 | 0.517 | 0.495
NCI-H520 | 1.06 | 1.29 | 1.02 | 0.886 | 1 | 0.888 | 0.986 | 0.826 | 0.698 | 0.73 | 0.48 | 0.432 | 0.461 | 0.452 | 0.356 | 0.213 | 0.216 | 0.183 | 0.175 | 0.203
LCLC-103H | – | – | – | – | – | 0.935 | 1.17 | 1.06 | 1.17 | 1.14 | 0.459 | 0.335 | 0.484 | 0.352 | 0.213 | 0.468 | 0.508 | 0.5 | 0.457 | 0.41
NCI-H1299 | 1.05 | 1.06 | 1.08 | 1.06 | 0.947 | 0.949 | 0.942 | 1.03 | 0.943 | 0.999 | – | – | – | – | – | – | – | – | – | –
NCI-H1703 | 0.735 | 0.902 | 0.386 | 0.195 | 0.14 | 0.481 | 0.676 | 0.695 | 0.64 | 0.474 | – | – | – | – | – | – | – | – | – | –
NCI-H661 | – | – | – | – | – | 0.641 | 0.636 | 0.551 | 0.484 | 0.547 | 0.357 | 0.358 | 0.37 | 0.378 | 0.362 | 0.384 | 0.407 | 0.396 | 0.36 | 0.34
ChaGo-K-1 | 1.16 | 0.807 | 0.888 | 0.515 | 0.316 | – | – | – | – | – | 0.237 | 0.21 | 0.232 | 0.22 | 0.223 | 0.962 | 0.912 | 0.911 | 0.939 | 0.974
NCI-H2342 | – | – | – | – | – | – | – | – | – | – | 0.574 | 0.466 | 0.47 | 0.668 | 0.525 | 0.547 | 0.557 | 0.548 | 0.496 | 0.496
SW 900 | – | – | – | – | – | – | – | – | – | – | 0.576 | 0.582 | 0.372 | 0.294 | 0.237 | – | 0.604 | 0.543 | 0.452 | 0.519
NCI-H1563 | – | – | – | – | – | 1.07 | 0.935 | 0.898 | 0.634 | 0.587 | – | – | – | – | – | – | – | – | – | –
NCI-H1648 | – | – | – | – | – | – | – | – | – | – | 0.376 | 0.356 | 0.448 | 0.408 | 0.231 | 0.283 | 0.294 | 0.286 | 0.245 | 0.258
NCI-H522 | – | – | – | – | – | – | – | – | – | – | 0.562 | 0.517 | 0.527 | 0.574 | 0.5 | 0.986 | 1.19 | 1.08 | 0.89 | 1.04
A549 | 1.15 | 0.977 | 0.468 | 0.0557 | 0.0324 | – | 0.609 | 0.502 | 0.52 | 0.646 | – | – | – | – | – | – | – | – | – | –
NCI-H358 | – | – | – | – | – | 0.756 | 0.896 | 0.529 | 0.215 | 0.176 | 0.108 | 0.111 | 0.107 | 0.103 | 0.0821 | 0.129 | 0.141 | 0.118 | 0.0838 | 0.1
NCI-H650 | – | – | – | – | – | 1.01 | 0.753 | 0.949 | 0.709 | 0.411 | 0.795 | 0.263 | 0.648 | 0.455 | 0.226 | 0.371 | 0.362 | 0.325 | 0.293 | 0.326
NCI-H1650 | 1.11 | 1.18 | 1.11 | 0.33 | 0.203 | – | – | – | – | – | 0.362 | 0.265 | 0.264 | 0.329 | 0.204 | 0.237 | 0.317 | 0.282 | 0.173 | 0.145
ABC-1 | – | – | – | – | – | 0.787 | 0.727 | 0.805 | 0.435 | 0.337 | 0.2 | 0.181 | 0.163 | 0.16 | 0.208 | 0.651 | 0.712 | 0.543 | 0.471 | 0.368
